Data on one compound can be found in patent US5854388A, “Angiotensin IV peptides and receptor” (Washington State University Research Foundation, priority 1994, dated 1998).

The nature of the data set: Stability of angiotensin peptides in binding buffer (reverse phase HPLC). The format is physicochemical. To be noted: 4 h at 37° C. Here is the method: Binding studies were carried out in a buffer (below) containing an extensive cocktail of inhibitors that was designed to minimize metabolism of both the receptor and the test ligand, i.e., the buffer contained 5 mM EDTA, 0.2% BSA, […] Bestatin, 50 μM Plummer's inhibitor, and 100 μM PMSF.

On to `CC[C@H](C)[C@H](NC(=O)[C@H](Cc1ccc(O)cc1)NC(=O)[C@@H](N)C(C)C)C(=O)N[C@@H](Cc1cnc[nH]1)C(=O)N1CCC[C@H]1C(=O)N[C@@H](Cc1ccccc1)C(=O)O` [AIV, Val1 Tyr2 Ile3 His4 Pro5 Phe6], for which the “hydrolysis in binding buffer” value is “less than 10%”.
